Experimental data: ChEMBL document CHEMBL1201862, “PubChem BioAssay data set” (2004)
The source made the active and inactive calls.

Columns and labels:
Keap1/Nrf2 = Keap1/Nrf2 (Homo sapiens, UniProt Q14145); experiment: disruptors of Keap1 binding to Nrf2 peptide – biochemical, fluorescence polarization, cherry-picked samples, dose response (AID 588683)
[1] = molecular target: UDP-galactopyranose mutase (Mycobacterium tuberculosis, UniProt P9WIQ1); experiment: Inhibitors of Mycobacterium tuberculosis UDP-galactopyranose mutase (UGM) enzyme Measured in Biochemical System Using Plate Reader - 2105-02_Inhibitor_Dose_CherryPick_Activity. [Related pubchem assays (depositor defined):AID504439]
ORF 73 = molecular target: T1, ORF 73 (Human herpesvirus 8, UniProt O40947); experiment: KSHV LANA DNA-binding disruption – biochemical, fluorescence polarization, cherry-picked samples, dose response (AID 504725); set-up: species or system Human gammaherpesvirus 8;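 further: fluorescence polarization of a labeled DNA duplex reporting LANA DNA binding; potency is for inhibitors that block LANA binding to the DNA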
T1 sequence (O40947 whole entry): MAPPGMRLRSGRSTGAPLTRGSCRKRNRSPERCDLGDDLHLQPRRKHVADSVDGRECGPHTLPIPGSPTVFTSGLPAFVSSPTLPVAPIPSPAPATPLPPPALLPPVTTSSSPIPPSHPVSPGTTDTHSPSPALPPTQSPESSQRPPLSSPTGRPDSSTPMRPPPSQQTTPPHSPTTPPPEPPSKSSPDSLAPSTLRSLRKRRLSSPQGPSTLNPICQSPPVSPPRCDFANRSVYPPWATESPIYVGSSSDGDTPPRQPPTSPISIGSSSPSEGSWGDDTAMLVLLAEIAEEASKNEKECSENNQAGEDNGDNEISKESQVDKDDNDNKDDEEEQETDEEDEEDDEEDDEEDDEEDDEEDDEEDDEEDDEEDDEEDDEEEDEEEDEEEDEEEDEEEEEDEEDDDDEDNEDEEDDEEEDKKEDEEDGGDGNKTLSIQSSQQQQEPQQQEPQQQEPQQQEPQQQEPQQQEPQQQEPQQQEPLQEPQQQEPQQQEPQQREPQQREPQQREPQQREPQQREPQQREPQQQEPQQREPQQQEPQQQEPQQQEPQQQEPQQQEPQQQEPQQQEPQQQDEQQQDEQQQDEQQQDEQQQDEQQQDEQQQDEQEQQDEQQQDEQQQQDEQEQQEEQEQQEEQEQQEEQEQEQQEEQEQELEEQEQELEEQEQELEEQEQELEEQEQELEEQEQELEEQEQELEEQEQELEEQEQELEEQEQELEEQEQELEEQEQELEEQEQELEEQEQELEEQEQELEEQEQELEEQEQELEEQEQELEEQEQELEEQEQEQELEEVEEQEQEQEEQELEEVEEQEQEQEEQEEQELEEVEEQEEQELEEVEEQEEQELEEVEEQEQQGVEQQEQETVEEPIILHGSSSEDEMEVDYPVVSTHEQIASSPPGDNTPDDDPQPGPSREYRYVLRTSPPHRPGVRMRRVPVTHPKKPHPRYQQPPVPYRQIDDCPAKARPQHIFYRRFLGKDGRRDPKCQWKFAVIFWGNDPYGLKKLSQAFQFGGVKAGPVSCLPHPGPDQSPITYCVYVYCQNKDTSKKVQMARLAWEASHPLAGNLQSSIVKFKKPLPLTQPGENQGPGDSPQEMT

[2] = MIN6 cell viability loss – mouse insulinoma, cytotoxicity control, dose response (AID 2122); assay type: functional;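 further: confirmatory high-throughput counterscreen run to flag cytotoxic compounds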
[3] = reduction of Shn3 3'UTR-driven luciferase in osteoblasts – cell-based, Clone20 osteoblasts, firefly luciferase, cherry-picked, dose response (AID 624132); assay type: functional;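 further: firefly luciferase luminescence from reporter carrying the Shn3 3'UTR in osteoblasts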
cells = assay type: functional
[4] = loss of viability in HepG2 cells – cell-based, CellTiter-Glo, cherry-picked, cytotoxicity control for Shn3 inhibitor project, dose response (AID 624134); assay type: functional
[5] = molecular target: T2, Corticotropin-releasing factor receptor 2/Corticotropin-releasing factor-binding protein (Homo sapiens, UniProt P24387+Q13324); experiment: Dose Response confirmation of uHTS hits for small molecule antagonists of the CRF-binding protein and CRF-R2 receptor complex.; assay type: functional; conditions: read-out: IC50_Mean
T2 sequence (Q13324 whole entry): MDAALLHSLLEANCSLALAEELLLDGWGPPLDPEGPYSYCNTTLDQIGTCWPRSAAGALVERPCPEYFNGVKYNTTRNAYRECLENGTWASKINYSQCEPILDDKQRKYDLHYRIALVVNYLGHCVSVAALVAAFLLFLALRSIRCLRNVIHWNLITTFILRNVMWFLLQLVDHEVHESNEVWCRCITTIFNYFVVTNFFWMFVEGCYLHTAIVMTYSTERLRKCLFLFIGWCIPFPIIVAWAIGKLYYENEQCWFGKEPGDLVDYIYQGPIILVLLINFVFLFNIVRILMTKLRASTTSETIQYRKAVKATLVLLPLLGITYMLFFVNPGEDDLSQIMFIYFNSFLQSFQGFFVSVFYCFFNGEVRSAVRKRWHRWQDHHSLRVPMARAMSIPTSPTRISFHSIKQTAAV
T2 sequence (P24387 whole entry): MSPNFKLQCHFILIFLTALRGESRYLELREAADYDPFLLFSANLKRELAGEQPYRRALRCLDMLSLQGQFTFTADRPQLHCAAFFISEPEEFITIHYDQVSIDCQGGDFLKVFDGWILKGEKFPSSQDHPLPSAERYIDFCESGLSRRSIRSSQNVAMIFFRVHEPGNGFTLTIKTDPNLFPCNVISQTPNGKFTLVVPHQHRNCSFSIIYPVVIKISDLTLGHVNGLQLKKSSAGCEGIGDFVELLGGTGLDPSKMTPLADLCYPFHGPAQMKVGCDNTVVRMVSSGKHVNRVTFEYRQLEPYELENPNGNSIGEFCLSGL

[6] = decrease of insulin promoter-GFP reporter – imaging, high-content screening, mouse beta cells (AID 1628); assay type: functional; conditions: MIN6
[7] = THP-1 cell cytotoxicity, dose response, cytotoxicity control for non-replicating M. tuberculosis project (AID 489025); assay type: functional
[8] = HepG2 cell cytotoxicity, dose response, cytotoxicity control for non-replicating M. tuberculosis project (AID 489018); assay type: functional; conditions: Mycobacterium tuberculosis
[9] = molecular target: T2, Corticotropin-releasing factor receptor 2/Corticotropin-releasing factor-binding protein; experiment: activators of CRF receptor 2 with binding protein – uHTS hits, confirmation (AID 602473); assay type: functional; conditions: read-out: EC50_Mean
[10] = Vero E6 cell cytotoxicity, dose response, cytotoxicity control for non-replicating M. tuberculosis project, secondary assay (AID 492998); assay type: functional, VeroE6; conditions: Vero C1008
[11] = non-specific 3'UTR reporter inhibition in Clone20-Shn3RL – cell-based, Renilla luciferase, cherry-picked, counter-screen for Shn3 inhibitor project, dose response (AID 624133); assay type: functional
Jurkat = experiment: blockers of NF-kB activation in T cells – Jurkat, luciferase reporter, luminescence, B- and T-cell, dose response (AID 489004); assay type: functional, cell-based; conditions: Homo sapiens;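 further: NF-kB luciferase reporter Jurkat cells stimulated with PMA plus ionomycin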
[12] = HEK-293T viability loss, compound-treated – cell-based, uHTS hits, cytotoxicity control for B/T-cell NF-kB inhibitor project, dose response (AID 489019); assay type: functional;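 further: IC50 reflects cytotoxicity as loss of cell viability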
Cytochrome P450 3A4 = Cytochrome P450 3A4 (Homo sapiens, UniProt P08684);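 further: CYP3A4 tested as one member of a cytochrome P450 panel screen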
[13] = reduced cellular PGC1a acetyl-lysine signal – cell-based, cherry-picked samples, dose response (AID 720514); assay type: functional;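 further: potency may reflect raised or lowered acetylation signal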
[14] = molecular target: T3, High affinity choline transporter 1 (Homo sapiens, UniProt Q9GZV3); experiment: human choline transporter blockers, potency – cell-based, 5-point CRC, membrane potential dye, dose response (AID 504840); assay type: functional
T3 sequence (Q9GZV3 whole entry): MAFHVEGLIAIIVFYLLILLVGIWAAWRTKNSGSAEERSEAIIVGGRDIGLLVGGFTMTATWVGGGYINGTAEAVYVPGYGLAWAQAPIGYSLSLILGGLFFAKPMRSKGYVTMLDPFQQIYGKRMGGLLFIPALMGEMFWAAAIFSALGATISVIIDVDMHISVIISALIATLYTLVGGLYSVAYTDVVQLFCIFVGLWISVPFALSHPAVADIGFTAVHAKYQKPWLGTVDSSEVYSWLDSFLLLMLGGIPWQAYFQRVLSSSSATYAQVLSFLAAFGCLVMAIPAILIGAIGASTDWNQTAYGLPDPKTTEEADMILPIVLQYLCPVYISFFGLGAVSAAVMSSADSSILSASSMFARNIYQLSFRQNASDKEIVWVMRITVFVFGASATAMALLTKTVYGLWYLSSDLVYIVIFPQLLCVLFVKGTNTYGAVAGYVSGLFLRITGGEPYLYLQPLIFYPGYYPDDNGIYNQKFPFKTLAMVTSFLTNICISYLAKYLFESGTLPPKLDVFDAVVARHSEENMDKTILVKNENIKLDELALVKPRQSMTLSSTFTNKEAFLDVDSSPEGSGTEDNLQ

Cytochrome P450 1A2 = molecular target: T4, Cytochrome P450 1A2 (Homo sapiens, UniProt P05177);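 further: PubChem cytochrome P450 panel assay, CYP1A2 panel member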
T4 sequence (P05177 whole entry): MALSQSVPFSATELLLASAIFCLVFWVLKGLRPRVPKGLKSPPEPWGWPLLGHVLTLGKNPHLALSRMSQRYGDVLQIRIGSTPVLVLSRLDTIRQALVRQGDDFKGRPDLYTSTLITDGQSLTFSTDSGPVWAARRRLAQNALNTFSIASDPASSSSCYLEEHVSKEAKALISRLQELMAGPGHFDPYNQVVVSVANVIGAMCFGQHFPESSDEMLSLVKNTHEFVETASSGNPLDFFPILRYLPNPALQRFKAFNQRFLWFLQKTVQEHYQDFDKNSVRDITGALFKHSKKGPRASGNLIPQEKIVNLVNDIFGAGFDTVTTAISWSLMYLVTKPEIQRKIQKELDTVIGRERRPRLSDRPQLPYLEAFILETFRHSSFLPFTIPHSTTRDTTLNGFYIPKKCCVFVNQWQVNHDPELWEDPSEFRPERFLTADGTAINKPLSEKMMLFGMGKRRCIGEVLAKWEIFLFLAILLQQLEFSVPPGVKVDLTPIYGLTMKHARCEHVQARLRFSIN

Cytochrome P450 2D6 = Cytochrome P450 2D6 (Homo sapiens, UniProt P10635);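 further: CYP2D6 member of a cytochrome P450 panel assay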
HEK293 [15] = experiment: cells; assay type: functional, cell-based; conditions: Homo sapiens
HEK293 [16] = experiment: inhibition of NOD1-driven NF-kB reporter – cell-based, luminescence, uHTS, primary screen (AID 1578); assay type: functional; conditions: Homo sapiens
[17] = HEK-293T viability loss after treatment – luminescence, T-cell screen hits, cytotoxicity control for TCR NF-kB inhibitor project, dose response (AID 489026); assay type: functional, cell-based;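 further: cells exposed to compound about 14 hours before the viability readout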
HEK293 [18] = experiment: NOD2 signaling inhibitors in MDP-stimulated cells, cell-based, uHTS, luminescence (AID 2001); assay type: functional; conditions: Homo sapiens
HEK293 [19] = experiment: cells; assay type: functional, cell-based; conditions: Homo sapiens; remark: listed apart in the source
INS1 = experiment: INS-1E survival protection against cytokine death – cell-based, luminescence, retest, dose response (AID 449756); assay type: functional; conditions: Rattus norvegicus;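 further: cell death triggered by IL-1 beta plus TNF-alpha plus IFN-gamma mixture; protective hits raise ATP signal compared with cytokine alone wells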
SUMO E1/E2 = SUMO E1/E2 (Homo sapiens, UniProt P63279+Q9UBE0+Q9UBT2); experiment: SAR analysis of SUMOylation using HTRF in an in-Vitro dose response assay. [Related pubchem assays (depositor defined):AID2006, AID2011, AID2018, AID2069, AID2658]; assay type: functional
SUMO E1/E2, sequence (Q9UBE0 whole entry): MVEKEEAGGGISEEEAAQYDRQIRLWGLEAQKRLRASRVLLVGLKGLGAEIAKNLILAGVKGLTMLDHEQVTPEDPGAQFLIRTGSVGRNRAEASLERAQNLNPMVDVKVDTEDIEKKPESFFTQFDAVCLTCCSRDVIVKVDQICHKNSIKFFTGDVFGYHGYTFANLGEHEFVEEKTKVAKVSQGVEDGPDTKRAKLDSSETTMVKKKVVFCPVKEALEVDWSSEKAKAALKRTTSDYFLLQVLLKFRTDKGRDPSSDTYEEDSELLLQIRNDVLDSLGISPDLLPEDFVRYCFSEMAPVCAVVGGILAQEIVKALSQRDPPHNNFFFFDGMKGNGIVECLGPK
SUMO E1/E2, sequence (Q9UBT2 whole entry): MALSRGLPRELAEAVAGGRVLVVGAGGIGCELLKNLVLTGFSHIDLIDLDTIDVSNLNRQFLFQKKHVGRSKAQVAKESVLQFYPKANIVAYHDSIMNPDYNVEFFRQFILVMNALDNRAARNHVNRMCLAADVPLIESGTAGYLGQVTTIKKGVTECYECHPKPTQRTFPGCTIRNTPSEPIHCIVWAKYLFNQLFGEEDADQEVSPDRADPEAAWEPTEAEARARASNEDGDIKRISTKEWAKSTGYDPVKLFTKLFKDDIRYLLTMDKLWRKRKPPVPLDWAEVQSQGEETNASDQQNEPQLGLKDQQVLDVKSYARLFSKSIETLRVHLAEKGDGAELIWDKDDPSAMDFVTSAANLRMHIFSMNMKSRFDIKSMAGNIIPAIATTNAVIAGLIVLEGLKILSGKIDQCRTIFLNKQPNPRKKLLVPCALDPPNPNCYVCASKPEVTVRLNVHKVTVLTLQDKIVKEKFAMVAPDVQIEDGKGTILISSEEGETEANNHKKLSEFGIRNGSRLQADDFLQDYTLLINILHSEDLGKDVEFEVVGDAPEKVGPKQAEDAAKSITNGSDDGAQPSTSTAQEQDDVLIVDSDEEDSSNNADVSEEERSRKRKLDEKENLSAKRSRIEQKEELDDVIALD
SUMO E1/E2, sequence (P63279 whole entry): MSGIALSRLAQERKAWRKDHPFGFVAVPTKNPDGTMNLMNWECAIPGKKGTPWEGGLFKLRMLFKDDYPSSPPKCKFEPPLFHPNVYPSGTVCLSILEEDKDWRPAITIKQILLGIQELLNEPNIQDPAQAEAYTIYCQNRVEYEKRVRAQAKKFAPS

Cytochrome P450 3A4, sequence (P08684 whole entry): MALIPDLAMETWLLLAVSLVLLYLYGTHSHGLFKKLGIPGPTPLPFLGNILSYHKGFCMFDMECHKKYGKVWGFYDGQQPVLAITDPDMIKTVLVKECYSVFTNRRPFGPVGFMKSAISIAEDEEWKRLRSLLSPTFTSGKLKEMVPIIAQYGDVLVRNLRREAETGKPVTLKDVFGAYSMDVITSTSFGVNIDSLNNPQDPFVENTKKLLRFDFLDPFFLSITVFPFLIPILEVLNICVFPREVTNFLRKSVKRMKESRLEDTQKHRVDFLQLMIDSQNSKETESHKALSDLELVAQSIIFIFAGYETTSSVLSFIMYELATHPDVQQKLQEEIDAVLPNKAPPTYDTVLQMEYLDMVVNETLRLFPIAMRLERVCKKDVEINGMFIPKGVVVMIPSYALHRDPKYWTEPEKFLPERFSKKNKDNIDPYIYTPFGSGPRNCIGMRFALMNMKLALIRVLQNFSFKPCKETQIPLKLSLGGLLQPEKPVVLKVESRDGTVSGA
UDP-galactopyranose mutase, sequence (P9WIQ1 whole entry): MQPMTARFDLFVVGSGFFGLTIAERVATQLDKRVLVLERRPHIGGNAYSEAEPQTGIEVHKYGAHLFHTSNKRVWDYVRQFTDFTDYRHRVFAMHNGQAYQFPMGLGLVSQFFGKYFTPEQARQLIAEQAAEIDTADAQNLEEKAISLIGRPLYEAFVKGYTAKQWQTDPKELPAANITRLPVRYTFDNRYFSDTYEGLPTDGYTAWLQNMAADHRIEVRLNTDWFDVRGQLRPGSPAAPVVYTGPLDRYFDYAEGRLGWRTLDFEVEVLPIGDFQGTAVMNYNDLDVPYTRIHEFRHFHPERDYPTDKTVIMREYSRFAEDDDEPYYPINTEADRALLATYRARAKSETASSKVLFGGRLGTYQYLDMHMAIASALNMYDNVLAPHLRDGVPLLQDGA
Keap1/Nrf2, sequence (Q16236 whole entry): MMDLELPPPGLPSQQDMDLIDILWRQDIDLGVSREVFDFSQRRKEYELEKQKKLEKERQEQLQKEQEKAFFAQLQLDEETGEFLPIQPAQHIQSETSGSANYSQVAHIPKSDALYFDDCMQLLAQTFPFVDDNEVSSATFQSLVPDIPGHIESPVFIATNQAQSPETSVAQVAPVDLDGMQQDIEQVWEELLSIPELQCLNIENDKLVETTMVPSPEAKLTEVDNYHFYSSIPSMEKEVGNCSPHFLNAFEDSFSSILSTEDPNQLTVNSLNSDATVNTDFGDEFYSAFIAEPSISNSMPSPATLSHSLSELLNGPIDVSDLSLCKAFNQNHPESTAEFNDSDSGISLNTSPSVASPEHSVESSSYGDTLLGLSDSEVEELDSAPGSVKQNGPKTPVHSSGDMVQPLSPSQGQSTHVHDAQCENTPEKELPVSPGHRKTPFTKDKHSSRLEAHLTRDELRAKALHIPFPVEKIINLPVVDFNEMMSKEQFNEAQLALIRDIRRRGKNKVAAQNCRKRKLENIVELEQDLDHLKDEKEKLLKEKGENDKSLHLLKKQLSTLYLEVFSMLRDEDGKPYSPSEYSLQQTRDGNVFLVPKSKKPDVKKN
Keap1/Nrf2, sequence (Q14145 whole entry): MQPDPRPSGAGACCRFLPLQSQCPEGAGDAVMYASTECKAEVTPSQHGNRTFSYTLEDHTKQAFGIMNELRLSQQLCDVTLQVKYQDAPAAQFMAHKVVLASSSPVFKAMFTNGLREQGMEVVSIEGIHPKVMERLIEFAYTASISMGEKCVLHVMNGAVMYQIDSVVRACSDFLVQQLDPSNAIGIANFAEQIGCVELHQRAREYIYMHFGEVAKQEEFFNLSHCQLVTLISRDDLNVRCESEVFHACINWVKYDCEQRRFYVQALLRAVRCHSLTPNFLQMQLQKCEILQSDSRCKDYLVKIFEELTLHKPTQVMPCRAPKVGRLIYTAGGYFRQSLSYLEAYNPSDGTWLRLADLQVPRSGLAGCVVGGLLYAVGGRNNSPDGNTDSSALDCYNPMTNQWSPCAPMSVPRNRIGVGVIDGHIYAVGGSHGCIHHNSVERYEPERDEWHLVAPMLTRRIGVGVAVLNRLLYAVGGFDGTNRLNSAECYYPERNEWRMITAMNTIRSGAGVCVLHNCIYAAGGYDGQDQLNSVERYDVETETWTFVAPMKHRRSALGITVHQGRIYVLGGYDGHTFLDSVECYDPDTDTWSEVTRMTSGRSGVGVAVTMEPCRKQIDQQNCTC
Cytochrome P450 2D6, sequence (P10635 whole entry): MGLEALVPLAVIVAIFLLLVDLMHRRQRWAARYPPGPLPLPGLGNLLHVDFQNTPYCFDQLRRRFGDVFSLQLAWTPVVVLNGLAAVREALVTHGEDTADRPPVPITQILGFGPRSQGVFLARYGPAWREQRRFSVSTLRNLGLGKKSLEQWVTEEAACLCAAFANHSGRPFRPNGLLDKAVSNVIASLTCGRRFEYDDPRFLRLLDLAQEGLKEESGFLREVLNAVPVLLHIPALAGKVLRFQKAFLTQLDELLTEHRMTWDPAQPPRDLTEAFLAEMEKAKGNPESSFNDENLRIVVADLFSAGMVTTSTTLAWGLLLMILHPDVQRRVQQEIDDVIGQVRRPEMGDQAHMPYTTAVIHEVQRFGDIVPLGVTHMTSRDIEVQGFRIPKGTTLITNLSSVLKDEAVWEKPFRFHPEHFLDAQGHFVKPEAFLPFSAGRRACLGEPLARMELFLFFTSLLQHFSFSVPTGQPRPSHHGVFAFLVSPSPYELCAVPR

## Nc1ccc2nc3c(=O)n(C4CCCCC4)c(=O)[nH]c3nc2c1
Keap1/Nrf2
  AC50: 9.04 µM (active)
[1]
  AC50: 2.64 µM (active)
ORF 73
  AC50: 1.42 µM (active)

## Cc1cc(C)nc(N=C(N)Nc2ccc(-c3ccccc3)cc2)n1
[2]
  IC50: 1.36 µM (active)
[3]
  AC50: 4.45 µM (active)
cells
  IC50: 39 µM (active)
[4]
  AC50: > 70 µM (inactive)
[5]
  IC50: > 47.1 µM (inactive)
[6]
  IC50: 1.56 µM (active)
[7]
  CC50: 9.89 µM (active)
[8]
  CC50: 18.2 µM (active)
[9]
  EC50: 31.7 µM (active)
[10]
  CC50: > 20 µM (active)
[11]
  AC50: 22.6 µM (active)

## CC1(c2ccc3ccccc3c2)NC(=O)N(CC(=O)N2CCN(Cc3ccc(C#N)cc3)CC2)C1=O (centres undefined)
Jurkat
  IC50: > 80 µM (inactive)
[3]
  AC50: 0.416 µM (active)
[4]
  AC50: < 0.26 µM (active)
[12]
  IC50: > 80 µM (inactive)
[11]
  AC50: 1.04 µM (active)

## COCC(=O)N1CCN(c2ccc([N+](=O)[O-])cc2)CC1
Cytochrome P450 3A4
  AC50: inconclusive

## Cc1cccc(NS(=O)(=O)c2cccc(C(=O)NCC(c3ccco3)N3CCCCC3)c2)c1 (centres undefined)
[13]
  AC50: 32.2 µM (active)
[14]
  IC50: 22 µM (active)

## S=C(NCCC1=CCCCC1)NCc1ccco1
[2]
  IC50: 2.64 µM (active)
[6]
  IC50: 2.95 µM (active)

## O=c1[nH]c(=O)n(-c2ccc(F)cc2)c2c1C(C(F)(F)F)(C(F)(F)F)N=C(c1ccc(F)cc1)N2
[5]
  IC50: 4.69 µM (active)
[9]
  EC50: > 53 µM (inactive)
[14]
  IC50: 12 µM (active)

## COCCCNC(=O)c1ccc2c(=O)n(CC3CCCO3)c(=S)[nH]c2c1 (centres undefined)
Cytochrome P450 3A4
  AC50: inconclusive
Cytochrome P450 1A2
  AC50: 20 µM (inconclusive)
Cytochrome P450 2D6
  AC50: 0.178 µM (inconclusive)

## CCn1nc(C)c(CNC(=O)c2ccc(OC3CCN(Cc4ccccn4)CC3)cc2)c1C
HEK293 [15]
  IC50: 13.8 µM (active)
HEK293 [16]
  EC50: 2.57 µM (active)
[17]
  IC50: > 80 µM (inactive)
HEK293 [18]
  IC50: 9.64 µM (active)
HEK293 [19]
  IC50: 4.94 µM (active)
INS1
  AC50: 3.87 µM (active)

## O=C1c2oc3ccccc3c(=O)c2C(c2ccccc2)N1c1nccs1 (centres undefined)
SUMO E1/E2
  IC50: 22.4 µM (active)

## CCCN(CCc1ccccc1)[C@H]1CCc2c(O)cccc2C1
Cytochrome P450 3A4
  AC50: inconclusive
Cytochrome P450 1A2
  AC50: 12.6 µM (inconclusive)
